Data taken from paper PMC6001459 (The Febs Journal, 2018).

Molecular target: T1, PpBBE1 (Physcomitrium patens, UniProt A0A2K1JP57, D396N)
T1 construct: gene PHYPA_015719; full-length precursor 501 residues; native signal peptide (predicted 1-30) removed; C-terminal octahistidine tag; secreted from Komagataella phaffii KM71H (pPICZalpha, PDI coexpressed); ca. 54 kDa; monomer; bicovalent FAD
Assay: X-ray crystal structure, […] A
Format: binding
Settings: covalent; bicovalent via 8alpha to H111 and C6 to C172

T1 sequence (A0A2K1JP57 entry or part of it D396N): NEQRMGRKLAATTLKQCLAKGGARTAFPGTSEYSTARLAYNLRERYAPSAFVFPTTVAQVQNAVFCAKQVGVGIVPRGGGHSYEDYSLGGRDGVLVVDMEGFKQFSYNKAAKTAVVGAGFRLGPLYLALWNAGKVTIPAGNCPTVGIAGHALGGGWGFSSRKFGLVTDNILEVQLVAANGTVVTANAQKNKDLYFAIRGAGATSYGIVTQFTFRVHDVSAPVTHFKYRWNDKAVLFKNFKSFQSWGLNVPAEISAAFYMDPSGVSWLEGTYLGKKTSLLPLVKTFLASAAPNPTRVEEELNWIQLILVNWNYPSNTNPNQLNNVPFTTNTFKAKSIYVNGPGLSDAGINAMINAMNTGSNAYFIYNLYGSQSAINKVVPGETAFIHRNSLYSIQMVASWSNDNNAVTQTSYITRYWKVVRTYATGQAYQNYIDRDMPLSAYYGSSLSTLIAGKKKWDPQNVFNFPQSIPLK

For `Cc1cc2nc3c(=O)[nH]c(=O)nc-3n(C[C@H](O)[C@H](O)[C@H](O)COP(=O)(O)OP(=O)(O)OC[C@H]3O[C@@H](n4cnc5c(N)ncnc54)[C@H](O)[C@@H]3O)c2cc1C` [FAD], which “X-ray crystal structure, 2.6 A” value is on record?
Its value is “confirmed the bicovalent linkage of the flavin cofactor”.
